Measurements reported in patent US9957264B2 (Merck Sharp & Dohme Corp., priority 2013, dated 2018).

Molecular target: JAK1 (recombinant purified GST-tagged catalytic domain) (Homo sapiens (Human), UniProt P23458)
Assay: Jak Biochemical HTRF Assay (JAK1)
Conditions: [ATP] 31.8 μM
Description: Jak Biochemical HTRF Assay Protocol
The ability of compounds to inhibit the activity of JAK1, JAK2, JAK3, and Tyk2 was measured using a recombinant purified GST-tagged catalytic domain for each enzyme (Invitrogen JAK1 #M4290, JAK2 #M4290, JAK3 #M4290, Tyk2 #M4290) in an HTRF format biochemical assay. The reactions employed a common peptide substrate, LCB-[…]-NH2 (in-house). The basic assay protocol is as follows: First, 250 nL of diluted compounds in DMSO were dispensed into the wells of a dry 384-well Black plate (Greiner #781076) using a Labcyte Echo 555 acoustic dispenser. Subsequent reagent additions employed an Agilent Bravo. […] After equilibration, 2 μL of 10×ATP in 1× assay buffer was added to initiate the kinase reaction and the plates were shaken and then incubated at room temperature for 120 minutes. At the end of the incubation, 20 μL of 2× stop buffer (streptavidin-Dylight 650 (Thermo #84547B/100 mL), Eu-tagged pY20 antibody (Perkin Elmer #AD0067), EDTA, HEPES, and Triton) was added to quench the reaction. Plates were shaken and centrifuged and then incubated 60 minutes at room temperature and then read on a Perkin Elmer Envision (λex=337 nm, λem=665 and 615 nm, TRF delay time=20 μs). HTRF signal=10,000*665 nm reading/615 nm reading. After normalization to untreated controls, the percent inhibition of the HTRF signal at each compound concentration was calculated. The plot of percent inhibition versus the log of compound concentration was fit with a 4-parameter dose response equation to calculate IC50 values.
Final reaction conditions were:
Examples of the instant invention were evaluated in JAK1 and JAK2 in vitro binding assays as described above. The following table tabulates the JAK1 IC50 values and JAK2 IC50 values disclosed for the instant invention.

JAK1 (recombinant purified GST-tagged catalytic domain), sequence (P23458 875-1153): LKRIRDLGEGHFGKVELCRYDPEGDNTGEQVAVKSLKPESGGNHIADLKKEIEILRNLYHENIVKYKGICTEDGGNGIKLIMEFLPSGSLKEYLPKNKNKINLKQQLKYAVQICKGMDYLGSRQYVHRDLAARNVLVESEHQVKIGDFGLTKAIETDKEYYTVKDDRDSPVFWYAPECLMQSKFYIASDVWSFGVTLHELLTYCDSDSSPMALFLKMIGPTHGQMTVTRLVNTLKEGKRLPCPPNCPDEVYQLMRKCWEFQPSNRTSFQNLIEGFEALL

SMILES | IC50 [nM]
Cc1cc(Nc2nn([C@]3(CC#N)CC[C@@H](C(=O)OC(C)(C)C)OC3)c3cc[nH]c(=O)c23)ccc1C(=O)N1CCSC(C)C1 (single isomer, unassigned) [Example 5-158, (2S,5S)-tert-butyl 5-(cyanomethyl)-5-(3-((3-methyl-4-((S or R)-2-methylthiomorpholine-4-carbonyl)phenyl)amino)-4-oxo-4,5-dihydro-1H-pyrazolo[4,3-c]pyridin-1-yl)tetrahydro-2H-pyran-2-carboxylate] | 0.28
CC(C)(C)OC(=O)[C@@H]1CC[C@@](CC#N)(n2nc(Nc3ccc4c(c3)CN(C(C)(C)C)S4(=O)=O)c3c(=O)[nH]ccc32)CO1 [Example 5-41, (2S,5S)-tert-butyl 5-(3-((2-(tert-butyl)-1,1-dioxido-2,3-dihydrobenzo [d]isothiazol-5-yl)amino)-4-oxo-4,5-dihydro-1H-pyrazolo[4,3-c]pyridin-1-yl)-5-(cyanomethyl) tetrahydro-2H-pyran-2-carboxylate] | 0.09
Cc1cc(Nc2nn([C@]3(CC#N)CC[C@@H](C(=O)OC(C)(C)C)OC3)c3cc[nH]c(=O)c23)ccc1C(=O)N1CCSCC1 [Example 20-6, (2S,5S)-tert-butyl 5-(cyanomethyl)-5-(3-((3-methyl-4-(thiomorpholine-4-carbonyl)phenyl)amino)-4-oxo-4,5-dihydro-1H-pyrazolo[4,3-c]pyridin-1-yl)tetrahydro-2H-pyran-2-carboxylate] | 0.13
CC(C)(C)OC(=O)[C@@H]1CC[C@@](CC#N)(n2nc(Nc3ccc4nc(N5CCOCC5)ccc4c3)c3c(=O)[nH]ccc32)CO1 [Example 5-227, (2S,5S)-tert-butyl 5-(cyanomethyl)-5-(3-((2-morpholinoquinolin-6-yl)amino)-4-oxo-4,5-dihydro-1H-pyrazolo[4,3-c]pyridin-1-yl)tetrahydro-2H-pyran-2-carboxylate] | 0.15
CC(C)(C)OC(=O)[C@@H]1CC[C@@](CC#N)(n2nc(Nc3ccc(C(O)(C(C)(C)C)C(F)(F)F)cc3)c3c(=O)[nH]ccc32)CO1 (single isomer, unassigned) [Example 5-167, (2S,5S)-tert-butyl 5-(cyanomethyl)-5-(4-oxo-3-((4-((S or R)-1,1,1-trifluoro-2-hydroxy-3,3-dimethylbutan-2-yl)phenyl)amino)-4,5-dihydro-1H-pyrazolo[4,3-c]pyridin-1-yl)tetrahydro-2H-pyran-2-carboxylate] | 0.83
CC(C)(C)OC(=O)[C@@H]1CC[C@@](CC#N)(n2nc(Nc3ccc(C(O)(C(C)(C)C)C(F)(F)F)cc3)c3c(=O)[nH]ccc32)CO1 (single isomer, unassigned) [Example 5-166, (2S,5S)-tert-butyl 5-(cyanomethyl)-5-(4-oxo-3-((4-((S or R)-1,1,1-trifluoro-2-hydroxy-3,3-dimethylbutan-2-yl)phenyl)amino)-4,5-dihydro-1H-pyrazolo[4,3-c]pyridin-1-yl)tetrahydro-2H-pyran-2-carboxylate] | 1.28
CC1(C)Cc2cc(Nc3nn([C@]4(CC#N)CCCOC4)c4cc[nH]c(=O)c34)ccc2C1(O)C(F)(F)F (single isomer, unassigned) [Example 5-120, 2-((S)-3-(3-((S or R)-1-hydroxy-2,2-dimethyl-1-(trifluoromethyl)-2,3-dihydro-1H-inden-5-yl)amino)-4-oxo-4,5-dihydro-1H-pyrazolo[4,3-c]pyridin-1-yl)tetrahydro-2H-pyran-3-yl)acetonitrile] | 0.07
CC1(C)Cc2cc(Nc3nn([C@]4(CC#N)CCCOC4)c4cc[nH]c(=O)c34)ccc2C1(O)C(F)(F)F (single isomer, unassigned) [Example 5-119, 2-((S)-3-(3-(((S or R)-1-hydroxy-2,2-dimethyl-1-(trifluoromethyl)-2,3-dihydro-1H-inden-5-yl)amino)-4-oxo-4,5-dihydro-1H-pyrazolo[4,3-c]pyridin-1-yl)tetrahydro-2H-pyran-3-yl)acetonitrile] | 0.15
CC(C)(C)N1Cc2cc(Nc3nn([C@]4(CC#N)CCOC[C@@H]4F)c4cc[nH]c(=O)c34)ccc2C1=O (single isomer, unassigned) [Example 5-259, 2-((3R,4R or 3S,4S)-4-(3-((2-(tert-butyl)-1-oxoisoindolin-5-yl)amino)-4-oxo-4,5-dihydro-1H-pyrazolo[4,3-c]pyridin-1-yl)-3-fluorotetrahydro-2H-pyran-4-yl)acetonitrile] | 0.04
N#CC[C@@]1(n2nc(Nc3ccc4c(c3)CN(C3CCNCC3)S4(=O)=O)c3c(=O)[nH]ccc32)CCOC[C@@H]1F (single isomer, unassigned) [Example 5-272, 2-((3R,4R or 3S,4S)-4-(3-((1,1-dioxido-2-(piperidin-4-yl)-2,3-dihydrobenzo [d]isothiazol-5-yl)amino)-4-oxo-4,5-dihydro-1H-pyrazolo[4,3-c]pyridin-1-yl)-3-fluorotetrahydro-2H-pyran-4-yl)acetonitrile] | 0.06
Cc1cc(Nc2nn([C@]3(CC#N)CC[C@@H](C(=O)OC(C)(C)C)OC3)c3cc[nH]c(=O)c23)ccc1C(=O)N1CCC(O)(C(F)(F)F)C1 (single isomer, unassigned) [Example 5-161, (2S,5S)-tert-butyl 5-(cyanomethyl)-5-(3-((4-((S or R)-3-hydroxy-3-(trifluoromethyl)pyrrolidine-1-carbonyl)-3-methylphenyl)amino)-4-oxo-4,5-dihydro-1H-pyrazolo[4,3-c]pyridin-1-yl)tetrahydro-2H-pyran-2-carboxylate] | 0.29

Further lines, results first:

IC50 [nM] | SMILES
2.62 | CN(C)S(=O)(=O)c1ccc(Nc2nn([C@]3(CC#N)CC[C@H](N4CC(F)C4)CC3)c3cc[nH]c(=O)c23)cc1 [Example 18-30, Cis 4-((1-(1-(cyanomethyl)-4-(3-fluoroazetidin-1-yl)cyclohexyl)-4-oxo-4,5-dihydro-1H-pyrazolo[4,3-c]pyridin-3-yl)amino)-N,N-dimethylbenzenesulfonamide]
1.54 | CN(C)S(=O)(=O)c1ccc(Nc2nn(C3(CC#N)CCN(Cc4cccc5[nH]ccc45)CC3)c3cc[nH]c(=O)c23)cc1 [Example 8-16, 4-({1-[4-(cyanomethyl)-1-(1H-indol-4-ylmethyl)piperidin-4-yl]-4-oxo-4,5-dihydro-1H-pyrazolo[4,3-c]pyridin-3-yl}amino)-N,N-dimethylbenzenesulfonamide]
0.15 | CC(C)NS(=O)(=O)c1ccc(Nc2nn(C3(CC#N)CCN(C(=O)OC(C)(C)C)CC3)c3cc[nH]c(=O)c23)cc1 [Example 5-288, tert-butyl 4-(cyanomethyl)-4-(3-((4-(N-isopropylsulfamoyl)phenyl)amino)-4-oxo-4,5-dihydro-1H-pyrazolo[4,3-c]pyridin-1-yl)piperidine-1-carboxylate]
< 0.02 | CN(C)S(=O)(=O)c1ccc(Nc2nn([C@@]3(CC#N)CCCC[C@H]3F)c3cc[nH]c(=O)c23)cc1 [Example 5-84]
0.2 | CN(C)S(=O)(=O)c1ccc(Nc2nn(C3(CC#N)CCN(Cc4ccc(C#N)cc4)CC3)c3cc[nH]c(=O)c23)cc1 [Example 8-5]
0.18 | CN(C)S(=O)(=O)c1ccc(Nc2nn(C3(CC#N)CCN(C(=O)OC4CCOCC4)CC3)c3cc[nH]c(=O)c23)cc1 [Example 11-7, tetrahydro-2H-pyran-4-yl 4-(cyanomethyl)-4-(3-((4-(N,N-dimethylsulfamoyl)phenyl)amino)-4-oxo-4,5-dihydro-1H-pyrazolo[4,3-c]pyridin-1-yl)piperidine-1-carboxylate]
0.12 | CC(C)S(=N)(=O)c1ccc(Nc2nn([C@]3(CC#N)CC[C@@H](C(=O)OC(C)(C)C)OC3)c3cc[nH]c(=O)c23)cc1 (single isomer, unassigned) [Example 5-230, (2S,5S)-tert-butyl 5-(cyanomethyl)-5-(4-oxo-3-((4-(propan-2-yl-(S or R)-sulfonimidoyl)phenyl)amino)-4,5-dihydro-1H-pyrazolo[4,3-c]pyridin-1-yl)tetrahydro-2H-pyran-2-carboxylate]
0.76 | CCOC(=O)C(C)(C)N(C)S(=O)(=O)c1ccc(Nc2nn(C3(CC#N)CCCC3)c3cc[nH]c(=O)c23)cc1 [Example 5-139, ethyl 2-(4-((1-(1-(cyanomethyl)cyclopentyl)-4-oxo-4,5-dihydro-1H-pyrazolo[4,3-c]pyridin-3-yl)amino)-N-methylphenylsulfonamido)-2-methylpropanoate]
0.2 | C[C@@H]1CN(C(=O)OC(C)(C)C)CC[C@]1(CC#N)n1nc(Nc2ccc(S(C)(=O)=O)cc2)c2c(=O)[nH]ccc21 (racemic) [Example 5-11, tert-butyl (3S,4S and 3R,4R)-4-(cyanomethyl)-3-methyl-4-(3-{[4-(methylsulfonyl)phenyl]amino}-4-oxo-4,5-dihydro-1H-pyrazolo[4,3-c]pyridin-1-yl)piperidine-1-carboxylate]
0.17 | CS(=O)(=O)c1ccc(Nc2nn(C3(CC#N)CCN(c4ccc(I)cn4)CC3)c3cc[nH]c(=O)c23)cc1 [Example 15-7, 2-(1-(5-iodopyridin-2-yl)-4-(3-((4-(methylsulfonyl)phenyl)amino)-4-oxo-4,5-dihydro-1H-pyrazolo[4,3-c]pyridin-1-yl)piperidin-4-yl)acetonitrile]
